{
  "source": "patent US20230390273A1",
  "about": "“4-PHENYL-TETRAHYDROPYRIDINE DERIVATIVES FOR TREATING HEARING DISEASES” (CILCARE DEV, priority 2021, published 2023)",
  "key": {"[1]": {"system": "male CBA/CaJ mice", "assay": "ABR Wave I amplitude after noise-induced temporary hearing loss (Example 8)", "format": "in vivo", "experimental": "Twelve male CBA/CaJ mice were selected and evenly distributed to treatment and control groups, each group comprising 4 mice at the end of the study. Randomization was performed using the ABR threshold in the left ear at 16 kHz as a criterium. The “sham” group consists in mice (n=4) that received neither noise exposure nor trans-tympanic injection. The “Traumatized” group consists in mice (n=4) that received noise exposure only. The “traumatized paliroden” group consists in mice (n=4) that received noise exposure and trans-tympanic injections of a composition comprising paliroden (fumarate salt), corresponding to composition 4P described in Example 2.\nAll animals (except sham group) received a bilateral noise exposure at a noise band of 8-16 kHz at 95 dB SPL RMS during 2 hours (from time T0 to time T0+2 hours) in awake conditions.\nFive microliters of a composition comprising paliroden as active agent were administered once in both ears of each mice of the treatment groups (5 μL per ear) via trans-tympanic administration by injection between the eardrum and the round window by means of a needle which crosses the eardrum, 24 hours post noise exposure, under isoflurane anesthesia. […]"}, "[2]": {"system": "synaptic ribbons in inner hair cells", "assay": "Ribbon synapse immunostaining and counting in cochlea (Example 8)", "format": "in vivo, male CBA/CaJ mice", "experimental": "At T+35 days, after DPOAE/ABR measures, all cochlea (four (4) left cochleae and four (4) right cochleae) per group were rapidly sampled and immediately fixed by PFA perfusion (through the round and oval windows with PFA 4% after creating a small hole at the apex) in order to performed ribbon synapse immunostaining and analysis. Cochleae were fixed for 1 hour in a 4% PFA solution and decalcified in undiluted RDO (10 mL/cochlea for a minimum of 2 hours). The membranous and sensory spiral containing the organ of Corti are dissected out as a flat surface preparation under a dissecting microscope and immunolabelled with appropriate antibodies: • Vglut3 (Vglut3-Guinea Pig IgG; #135 204, Synaptic systems and Anti-Guinea Pig IgG (H+L), #A21450; Thermo Fisher Scientific 647 nm Far-Red) to stain inner hair cell bodies (vesicular glutamate transporter). • Homer (Homer-Rabbit IgG; #GTX103278; Genetex and Anti-Rabbit IgG (H+L) #A11008 Thermo Fisher Scientific 568 nm Red) to stain dendritic proteins of auditory nerve fibers connecting to IHC (post-synaptic). • CtBP2 (CtBP2-Mouse-IgG1; #612044; BD Transduction Laboratories and Anti-Mouse IgG1, #A21121, Thermo Fisher Scientific 488 Green) to stain the ribeye protein as pre-synaptic marker in IHC. • Phalloidin (Alexa Fluor™ Plus 405 Phalloidin; #A30104; Thermo Fisher Scientific 405 Blue).\nImages were acquired on a confocal microscope and the slides were analyzed to i) evaluate by visual observation the presence of OHC and IHC (based on nuclei staining with CtBP2 and HC cell body staining with phalloidin) and ii) count the number of synaptic ribbons in selected inner hair cells in cochlea regions coding sound of selected frequency (25, 32 and 45 kHz).\nThe number of pre- (CtBP2) and post-synaptic (Homer) labeled spots was counted using Imaris software in 3 dimensions for each image. Co-localization of pre- and post-synaptic elements was defined as a distance of maximum […] between CtBP2- and Homer-labeled spots, using an in-house Matlab program to calculate the distances between CtBP2 and Homer labels from the x, y, and z coordinates."}},
  "note": "Where a name gives a salt, the structure may show the parent alone.",
  "data": [
    {"smiles": "FC(F)(F)c1cccc(C2=CCN(CCc3ccc(-c4ccccc4)cc3)CC2)c1", "note": "[paliroden (fumarate salt), 1-[2-(4-biphenylyl)ethyl]-4-(3-trifluoromethylphenyl)-1,2,3,6-tetrahydropyridine]", "values": [
      {"measurement": "Recovery of the ABR Wave I amplitudes", "setting": "[1]; 5 weeks post-noise, 16, 25, 32, 40, 45 kHz, paliroden 50 μg/ear one day post-noise", "result": "complete recovery"},
      {"measurement": "ABR Wave I amplitude recovery in comparison to traumatized untreated mice, subset analysis", "setting": "[1]; 25, 32, 40 and 45 kHz, p values <0.001", "result": "statistically significant"},
      {"measurement": "Number of colocalized ribbons per IHC", "setting": "[2]; 25 kHz to 40 kHz, not statistically different to sham", "result": "intermediate between traumatized and control mice"},
      {"measurement": "Number of pre-synaptic and post-synaptic elements (CtBP2 and Homer) per IHC", "setting": "[2]; 32 kHz, vs traumatized untreated, paliroden 50 μg/ear one day post-noise, subset", "result": "tended to increase"},
      {"measurement": "Colocalized ribbons per IHC", "setting": "[2]; 32 kHz, vs traumatized untreated, paliroden 50 μg/ear, subset", "result": "increase"}
    ]}
  ]
}
